Test results reported in PMC7932537, “Quantitative profiling of protease specificity” (PLoS Computational Biology, 2021).

What was measured:
MMP-2 [1] = test: Substrate phage display with NGS: relative probability (RP) of P3-P1' tetramer clusters; assay type: biochemical, human; conditions: MMP2;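 note: ratio of tetramer probability after protease selection to that in naive phage library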
MMP-2 [2] = molecular target: T1, MMP-2 (Homo sapiens, UniProt P08253); test: K(obs) of individual phage substrates (set of 1369); assay type: biochemical; conditions: MMP2
T1 sequence (P08253 110-660): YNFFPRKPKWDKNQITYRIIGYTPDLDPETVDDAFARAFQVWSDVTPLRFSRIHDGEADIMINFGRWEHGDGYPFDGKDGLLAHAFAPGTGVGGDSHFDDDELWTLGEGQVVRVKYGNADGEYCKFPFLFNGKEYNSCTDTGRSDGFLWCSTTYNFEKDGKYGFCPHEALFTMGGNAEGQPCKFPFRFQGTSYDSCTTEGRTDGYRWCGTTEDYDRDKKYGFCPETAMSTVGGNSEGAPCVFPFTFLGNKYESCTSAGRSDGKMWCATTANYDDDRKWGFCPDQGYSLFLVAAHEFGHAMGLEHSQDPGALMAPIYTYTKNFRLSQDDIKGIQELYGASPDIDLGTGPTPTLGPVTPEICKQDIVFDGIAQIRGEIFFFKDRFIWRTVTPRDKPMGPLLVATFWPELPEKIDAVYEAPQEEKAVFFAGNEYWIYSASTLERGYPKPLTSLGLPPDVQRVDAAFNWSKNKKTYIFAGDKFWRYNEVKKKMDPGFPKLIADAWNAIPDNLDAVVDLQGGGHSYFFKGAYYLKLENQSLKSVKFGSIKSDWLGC

MMP-9 = MMP-9 (Homo sapiens, UniProt P14780); test: as above; assay type: biochemical; conditions: MMP9
MMP-9, sequence (P14780 94-707): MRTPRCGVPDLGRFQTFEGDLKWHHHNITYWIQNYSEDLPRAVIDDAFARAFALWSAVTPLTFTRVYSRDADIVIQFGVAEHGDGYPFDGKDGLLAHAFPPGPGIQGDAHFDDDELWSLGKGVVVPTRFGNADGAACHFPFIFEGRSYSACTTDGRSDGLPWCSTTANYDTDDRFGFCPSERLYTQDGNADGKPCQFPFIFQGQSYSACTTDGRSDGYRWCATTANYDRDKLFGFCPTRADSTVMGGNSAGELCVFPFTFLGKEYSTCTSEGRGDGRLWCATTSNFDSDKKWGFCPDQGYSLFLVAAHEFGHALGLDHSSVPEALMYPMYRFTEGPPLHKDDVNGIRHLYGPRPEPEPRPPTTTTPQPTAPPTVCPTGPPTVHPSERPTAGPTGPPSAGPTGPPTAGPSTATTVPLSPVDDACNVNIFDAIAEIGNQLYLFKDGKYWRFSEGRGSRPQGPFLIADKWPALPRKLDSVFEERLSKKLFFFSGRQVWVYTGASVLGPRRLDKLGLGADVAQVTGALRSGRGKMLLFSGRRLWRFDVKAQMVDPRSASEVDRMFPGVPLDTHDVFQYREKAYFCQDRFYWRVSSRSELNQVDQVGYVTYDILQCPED

[3] = RP of the P3-P1' tetramer contained in the substrate (substrate phage display with NGS)
[4] = individual phage substrates, set of 1369 peptides, cleavage position marked by hyphen in sequence
[5] = individual phage substrates, set of 1369 peptides, hyphen in sequence marks cleavage position
[6] = RP of the P3-P1' tetramer contained in the substrate
[7] = individual phage substrate of the set of 1369 peptides, cleavage position marked by '-'
[8] = individual phage substrate of the set of 1369 peptides, dash in the sequence marks the cleavage position

Substance | relative probability (RP) (MMP-2 [1]; [3]) | Kobs (MMP-2 [2]; [4]) [M⁻¹ s⁻¹] | Kobs (MMP-9; [5]) [M⁻¹ s⁻¹] | relative probability (RP) (MMP-2 [1]; [6]) | Kobs (MMP-2 [2]; [7]) [M⁻¹ s⁻¹] | Kobs (MMP-9; [8]) [M⁻¹ s⁻¹]
ELMLS-MTASG | 5.234 | 2157.02 | 142.481 | – | – | –
GSTRN-LITAS | 12.3403 | 1870.4 | 990.764 | – | – | –
AVANS-LTASG | – | – | – | 10.0738 | 7386.83 | 1465.65
GGSGS-LVLRL | 7.225 | 1196.62 | 1030.73 | – | – | –
KTWRN-LTASG | – | – | – | 6.7583 | 690.17 | 0
GRLRN-LVTAS | – | – | – | 27.1336 | 5461.43 | 1925.41
GRLAS-LTASG | 31.1996 | 12792.1 | 0 | – | – | –
GTPYG-LVTAS | – | – | – | 32.9966 | 12792.1 | 12792.1
AFLSH-WTASG | 23.1226 | 12792.1 | 0 | – | – | –
GNPYK-LTASG | – | – | – | 15.5683 | 1196.62 | 8941.32
GGPFL-LKTAS | 9.085 | 1513.13 | 8321.48 | – | – | –
YDISA-LTASG | – | – | – | 31.8319 | 12792.1 | 113.394
SQVRF-LTASG | – | – | – | 15.0438 | 8321.48 | 6688.74
VRVLH-LTASG | 19.5348 | 8321.48 | 8321.48 | – | – | –
SGYYG-LRATA | 0.142 | 874.197 | 12792.1 | – | – | –
ARPEF-LTASG | – | – | – | 12.0159 | 8941.32 | 7015.91
PAYFP-LTASG | – | – | – | 0.1432 | 0 | 0
RFPRP-ITASG | – | – | – | 33.2176 | 12792.1 | 12792.1
NRPAS-WTASG | 32.4643 | 12792.1 | 3253.29 | – | – | –
ERSLA-WTASG | – | – | – | 18.2943 | 2157.02 | 113.394
SGLGT-LSKTA | 24.6198 | 836.403 | 0 | – | – | –
LPYFS-MTASG | 0.06612 | 386.839 | 1660.66 | – | – | –
YVPTG-LTASG | – | – | – | 33.1098 | 5461.43 | 4763.33
MNWES-LTASG | 0.6249 | 517.582 | 0 | – | – | –
HRLLS-LTASG | – | – | – | 2.018 | 6688.74 | 912.511
GIFWH-LRTAS | 0 | 0 | 0 | – | – | –
NMWAH-LTASG | 7.453 | 3079.62 | 323.705 | – | – | –

Substance | relative probability (RP) (MMP-2 [1]; [3]) | Kobs (MMP-2 [2]; [4]) [M⁻¹ s⁻¹] | Kobs (MMP-9; [5]) [M⁻¹ s⁻¹] | relative probability (RP) (MMP-2 [1]; [6]) | Kobs (MMP-2 [2]; [7]) [M⁻¹ s⁻¹] | Kobs (MMP-9; [8]) [M⁻¹ s⁻¹]
FDISH-LTASG | 30.7015 | 10866.7 | 171.876 | – | – | –
LLFSQ-LTASG | 9.065 | 8941.32 | 0 | – | – | –
SGPFF-LRKTA | 12.8224 | 1239.69 | 5090.5 | – | – | –
GCVRF-LQTAS | – | – | – | 15.0438 | 1239.69 | 1071.29
GRAAW-LQTAS | 28.6088 | 12792.1 | 1465.65 | – | – | –
MVPKW-LTASG | – | – | – | 29.287 | 7815.03 | 10866.7
GGSGN-LTMGS | 12.7361 | 0 | 0 | – | – | –
GHAYH-LTASG | – | – | – | 15.3364 | 3964.21 | 4763.33
HSPWF-LTASG | 12.628 | 3165.09 | 9740.44 | – | – | –
MGMWH-LTASG | 0.2013 | 0 | 142.481 | – | – | –
STIRM-LTASG | – | – | – | 12.7446 | 2837.92 | 2157.02
HWPVG-LTASG | 35.2016 | 2837.92 | 3079.62 | – | – | –
SGPLG-YTVTA | – | – | – | 33.1744 | 12792.1 | 12792.1
NSPLS-YTASG | – | – | – | 31.2477 | 8321.48 | 12792.1
GMAWG-LRTAS | 17.7408 | 8941.32 | 7815.03 | – | – | –
RLANN-LTASG | – | – | – | 18.8719 | 5461.43 | 484.315
GLLLN-MTASG | 13.7728 | 1711.63 | 517.582 | – | – | –
APVLA-LTASG | 13.5229 | 12792.1 | 6688.74 | – | – | –
GWPRE-LKTAS | – | – | – | 31.9513 | 12792.1 | 12792.1
GKMFH-LITAS | 0.052 | 292.668 | 142.481 | – | – | –
KTVVW-YTASG | – | – | – | 9.938 | 3165.09 | 3850.82
SGPHG-FFQTA | – | – | – | 21.975 | 171.876 | 551.253
SQPIH-MTASG | – | – | – | 18.8886 | 2097.28 | 6688.74
SGPTA-LRATA | – | – | – | 32.8941 | 10866.7 | 12792.1
ETMLA-LTASG | 5.6722 | 484.315 | 0 | – | – | –
TMGMN-MTASG | 0 | 142.481 | 517.582 | – | – | –
